Results from patent US11413267B2, “Methods and compositions for inhibition of ATR and FANCD2 activation” (priority 2012, dated 2022).

What was measured:
MDA-MB-231 cells = test: Mitotic entry assay (phospho-histone H3 Ser10, nocodazole trap, flow cytometry); assay type: cell-based, human
From the text: Of these, the G2/M checkpoint involves ATM and ATR in collaboration, whereas the S/M checkpoint is mediated solely by ATR. To maintain genetic integrity, ATR can prevent premature mitotic entry in the event of incomplete DNA replication or unrepaired DNA damage. In order to evaluate the effect of benzopyran-4-one derivatives on these ATR-associated DNA damage checkpoints, we observed the effect of benzopyran-4-one derivatives on mitotic entry following hydroxyurea or cisplatin treatment.
(§1) DNA replication was measured using a Click-it EdU assay kit, which is based on incorporation of the thymidine analogue 5-ethynyl-2′-deoxyuridine (EdU) into DNA during replication (Invitrogen). Then, 10 μM EdU was added to the cell culture medium 30 min before the cells were harvested and fixed in 4% paraformaldehyde. After cycloaddition, EdU was detected with Alexa Fluor 647 using click reaction catalyzed by Cu (II), and the DNA content was stained by CellCycle 405-blue. To assay the mitotic entry, cells were treated with the indicated drugs and trapped in 70 nM nocodazole for 16 h, and antibodies against phospho-histone H3 Ser10 and PI were used to stain the mitotic cells and DNA content, respectively. An FITC Annexin V apoptosis detection kit was used to characterize the phenotype of cell death based on PI and Annexin V double staining (BD Pharmingen, San Diego, Calif.). Fluorescence-labeled cells were subsequently analyzed by the BD LSR II flow cytometer with a suitable selection of excitation and emission wavelengths. The percentages of different fluorescent cells were analyzed using WinMDI Ver. 2.9.

CHO cells = test: In vitro chromosome aberration test; assay type: cell-based, Chinese Hamster; conditions: 2.00 μM
Method: To test this hypothesis, we investigated the cytogenetic effect of Protoapigenone (I-1) on CHO cells (FIG. 1).
In brief, 5×10^5 Chinese Hamster Ovary (CHO) cells were seeded in 60-mm dishes 1 d before the experiment. Protoapigenone (I-1)-induced structural chromosomal changes after 20 h were compared with that of the cells cultured in 2 μM mitomycin C. At 18 h after Protoapigenone (I-1), 0.1 μg/mL colchicine was added for 2 h, and metaphase cells were collected by shaking them off the dishes. Mitotic cells were treated with 0.5% KCl for 10 min and fixed with a 3:1 mixture of methanol: glacial acetic acid. The cells were then spread on slides for chromosome staining with 5% Giemsa solution. We then analyzed the chromosome structure of 200 well-spread metaphase cells (100 metaphase cells/experiment) under a 100× oil immersion objective.

DNA replication = test: EdU incorporation assay of DNA replication; assay type: cell-based; conditions: 10 μM
Method: as §1, with “5-ethynyl-2'-deoxyuridine” for “5-ethynyl-2′-deoxyuridine”, “To assay the mitotic entry, cells were treated with the indicated drugs and trapped in 70 nM nocodazole for 16 h, and antibodies against phospho-histone H3 Ser10 and PI were used to stain the mitotic cells and DNA content, respectively.” left out

[1] = test system: ATR-dependent Chk1 phosphorylation; test: Immunoblot of DNA damage-induced Chk1 phosphorylation; assay type: cell-based, human; conditions: after H2O2 damage
From the text: (§2) We hypothesized that genes with functions associated with DNA damage checkpoints and/or DNA repair might be targeted by benzopyran-4-one derivatives. To test this hypothesis, we assessed the effects of benzopyran-4-one derivatives on DDR induced by H2O2. […] In response to DNA double-strand breaks (DSBs), FANCD2 is known to be monoubiquitinated on K561 (FANCD2-Ub) in an ATR-dependent manner to stimulate repair (Andreassen P R, et al. Genes Dev 2004).
(§3) To elucidate the specificity of the benzopyran-4-one derivatives inhibition on ATR-mediated signaling, we compared the change between cells treated with benzopyran-4-one derivatives or the ATM-specific inhibitor KU55933 before the induction of DDR.
(§4) MDA-MB-231 (breast adenocarcinoma; ATCC HTB-26, BCRC 60425) and A549 (lung adenocarcinoma; ATCC CCL-185, BCRC 60074) human cell lines were purchased from Bioresource Collection and Research Center (BCRC, Hsinchu, Taiwan), and were authenticated by American Type Culture Collection (ATCC, Manassas, Va.). U2OS (osteosarcoma), HeLa (cervical adenocarcinoma), and HEK 293T (embryonic kidney cells) human cell lines were provided by Dr. Sheau-Yann Shieh (Institute of Molecular Biology, Academia Sinica, Taipei, Taiwan). Cells were maintained in Dulbecco's modified Eagle's medium (DMEM, Sigma-Aldrich) supplemented with 10% fetal bovine serum (FBS) (Gibco). […] For UV irradiation treatment, the cells were irradiated for 10 J/m^2 by a cross-linker (UVP) 1 h prior to analysis.
(§5) Cell lysate preparations, gel electrophoresis, and immunoblotting were performed as previously described (23). The binding of primary antibodies were detected by horseradish peroxidase-coupled secondary antibodies (Jackson ImmunoResearch) followed by enhanced chemiluminescence (ECL) (Millipore). The images of non-saturated bands were captured using a luminescent image analyzer (LAS-4000 mini; Fujifilm). The antibodies used in this study are listed in supplementary materials.

[2] = test system: ATM-mediated Chk2 phosphorylation; test: Immunoblot of DNA damage-induced Chk2 phosphorylation / ATM autophosphorylation; assay type: cell-based, human; conditions: after H2O2 damage
From the text: as §2, §3, §4, §5

[3] = DNA-damaging agent alone (Control group column)

## N.N.[Cl][Pt][Cl] [Cisplatin]
MDA-MB-231 cells; [3]
  The percentage of mitotic cells: 5.35 ± 0.07%

## CO[C@@]12[C@H](COC(N)=O)C3=C(C(=O)C(C)=C(N)C3=O)N1C[C@@H]1N[C@@H]12 [Mitomycin C, reference compound]
CHO cells; 200 cells per treatment
  Chromatid break (No.): 2 No.
  Chromatid deletion: 3 No.
  Complex rerrangement: 2 No.
  Dicentric: 1 No.
  Polyploid: 0 No.
  Pulverized cell: 5 No.
  Quadriradial: 29 No.
  Ring: 0 No.
  Triradial: 42 No.
CHO cells; * significant vs. control by t-test
  Average aberrant metaphases (%): 42.0 * %

## O=c1cc(-c2cccc3c2Sc2ccccc2S3)oc(N2CCOCC2)c1 [KU55933]
DNA replication
  Percentage of EdU incorporation compared with control group: not
[1]
  Effect on ATR-mediated Chk1 phosphorylation: small
MDA-MB-231 cells; cisplatin-treated cells
  Percentage of mitotic cells in cisplatin-treated cells (G2/M checkpoint), in words: increased the percentage of mitotic cells
MDA-MB-231 cells; compound alone (Control group, no DNA-damaging agent)
  The percentage of mitotic cells: 20.29 ± 1.48%
MDA-MB-231 cells; compound with Cisplatin (G2/M checkpoint)
  The percentage of mitotic cells: 9.70 ± 0.25%
MDA-MB-231 cells; compound with Hydroxyurea (S/M checkpoint)
  The percentage of mitotic cells: 11.19 ± 0.76%
[2]
  ATM-mediated Chk2 phosphorylation: strongly inhibited

## NC(=O)NO [Hydroxyurea]
MDA-MB-231 cells; [3]
  The percentage of mitotic cells: 4.46 ± 0.67%
